Data as given in ChEMBL document CHEMBL4007481, “Synthesis and antibacterial activity of 3-benzylamide derivatives as FtsZ inhibitors” (Bioorg Med Chem Lett, 2017).
Activity calls are given as the source filed them. No cut-off for these calls is given here.

Key:
[1] = system: Mycolicibacterium smegmatis; assay: Inhibition of FtsZ in Mycobacterium smegmatis ATCC 607 assessed as growth inhibition at 100 ug per disc after 18 to 24 hrs by paper disc agar diffusion assay
Pseudomonas aeruginosa = assay: Inhibition of FtsZ in Pseudomonas aeruginosa ATCC 9027 assessed as growth inhibition at 100 ug per disc after 18 to 24 hrs by paper disc agar diffusion assay
[2] = target: T1, Cell division protein FtsZ (Staphylococcus aureus) (UniProt P0A031); assay: Inhibition of FtsZ in Staphylococcus aureus ATCC 6538P assessed as growth inhibition at 100 ug per disc after 18 to 24 hrs by paper disc agar diffusion assay
T1 sequence (whole entry): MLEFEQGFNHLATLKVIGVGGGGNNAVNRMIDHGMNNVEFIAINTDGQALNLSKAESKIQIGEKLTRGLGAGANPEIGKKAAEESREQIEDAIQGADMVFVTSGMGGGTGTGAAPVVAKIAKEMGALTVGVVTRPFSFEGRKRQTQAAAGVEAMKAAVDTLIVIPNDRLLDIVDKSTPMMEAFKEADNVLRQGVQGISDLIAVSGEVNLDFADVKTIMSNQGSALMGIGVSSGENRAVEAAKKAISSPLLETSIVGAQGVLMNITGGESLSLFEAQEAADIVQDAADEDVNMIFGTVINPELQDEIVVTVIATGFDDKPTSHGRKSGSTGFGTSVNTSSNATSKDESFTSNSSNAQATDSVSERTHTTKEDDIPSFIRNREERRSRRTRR

[3] = system: Escherichia coli ATCC 25922; assay: Inhibition of FtsZ in Escherichia coli ATCC 25922 assessed as growth inhibition at 100 ug per disc after 18 to 24 hrs by paper disc agar diffusion assay
Candida albicans = assay: Antifungal activity against Candida albicans ATCC 10231 at 100 ug per disc after 3 to 5 days by paper disc agar diffusion assay; assay type: functional
[4] = system: Bacillus subtilis subsp. spizizenii ATCC 6633 = JCM 2499; assay: Inhibition of FtsZ in Bacillus subtilis ATCC 6633 assessed as ratio of diameter of zone inhibition of test compound to diameter of zone inhibition of tetracycline at 100 ug per disc after 18 to 24 hrs by paper disc agar diffusion assay
Klebsiella aerogenes = assay: Inhibition of FtsZ in Klebsiella aerogenes ATCC 9621 assessed as growth inhibition at 100 ug per disc after 18 to 24 hrs by paper disc agar diffusion assay
Aspergillus niger = assay: Antifungal activity against Aspergillus niger ATCC 16404 at 100 ug per disc after 3 to 5 days by paper disc agar diffusion assay; assay type: functional
[5] = target: T1, Cell division protein FtsZ (Staphylococcus aureus); assay: Inhibition of FtsZ in Staphylococcus aureus ATCC 6538P assessed as ratio of diameter of zone inhibition of test compound to diameter of zone inhibition of cephaloridine at 100 ug per disc after 18 to 24 hrs by paper disc agar diffusion assay
[6] = system: Mycolicibacterium smegmatis; assay: Inhibition of FtsZ in Mycobacterium smegmatis ATCC 607 assessed as ratio of diameter of zone inhibition of test compound to diameter of zone inhibition of streptomycin at 100 ug per disc after 18 to 24 hrs by paper disc agar diffusion assay
[7] = system: Bacillus subtilis subsp. spizizenii ATCC 6633 = JCM 2499; assay: Inhibition of FtsZ in Bacillus subtilis ATCC 6633 assessed as growth inhibition at 100 ug per disc after 18 to 24 hrs by paper disc agar diffusion assay
Klebsiella pneumoniae = assay: Inhibition of FtsZ in Klebsiella pneumoniae ATCC 9621 assessed as growth inhibition at 100 ug per disc after 18 to 24 hrs by paper disc agar diffusion assay

Structure (SMILES): NC(=O)c1c(F)ccc(OCC(=O)OCc2ccccc2)c1F
- inhibition [1]: inactive
- inhibition (Pseudomonas aeruginosa): inactive
- inhibition [2]: inactive
- inhibition [3]: inactive
- Activity (Candida albicans): inactive
- Ratio [4]: 0.18
- inhibition (Klebsiella aerogenes): inactive
- Activity (Aspergillus niger): inactive

Structure (SMILES): NC(=O)c1c(F)ccc(OCC(=O)OCCOc2ccccc2)c1F
- inhibition (Pseudomonas aeruginosa): inactive
- Ratio [5]: 0.18
- inhibition [3]: inactive
- Activity (Candida albicans): inactive
- Ratio [4]: 0.18
- inhibition (Klebsiella aerogenes): inactive
- Activity (Aspergillus niger): inactive
- Ratio [6]: 0.36

Structure (SMILES): NC(=O)c1c(F)ccc(OCCCOC(=O)c2ccccc2)c1F
- inhibition [1]: inactive
- inhibition (Pseudomonas aeruginosa): inactive
- inhibition [2]: inactive
- inhibition [7]: inactive
- inhibition [3]: inactive
- Activity (Candida albicans): inactive
- Activity (Aspergillus niger): inactive
- inhibition (Klebsiella pneumoniae): inactive

Structure (SMILES): NC(=O)c1c(F)ccc(OCCOC(=O)c2ccccc2)c1F
- inhibition [1]: inactive
- inhibition (Pseudomonas aeruginosa): inactive
- inhibition [2]: inactive
- inhibition [7]: inactive
- inhibition [3]: inactive
- Activity (Candida albicans): inactive
- Activity (Aspergillus niger): inactive
- inhibition (Klebsiella pneumoniae): inactive

Structure (SMILES): NC(=O)c1c(F)ccc(OCCCOc2cccc3cccnc23)c1F
- inhibition [1]: inactive
- inhibition (Pseudomonas aeruginosa): inactive
- Ratio [5]: 0.07
- inhibition [7]: inactive
- inhibition [3]: inactive
- Activity (Candida albicans): inactive
- inhibition (Klebsiella aerogenes): inactive
- Activity (Aspergillus niger): inactive

Structure (SMILES): NC(=O)c1c(F)ccc(OCCCOc2ccc3ccccc3c2)c1F
- inhibition [1]: inactive
- inhibition (Pseudomonas aeruginosa): inactive
- inhibition [2]: inactive
- inhibition [7]: inactive
- inhibition [3]: inactive
- Activity (Candida albicans): inactive
- inhibition (Klebsiella aerogenes): inactive
- Activity (Aspergillus niger): inactive

Structure (SMILES): N#Cc1ccc(OCCOC(=O)COc2ccc(F)c(C(N)=O)c2F)cc1
- inhibition [1]: inactive
- inhibition (Pseudomonas aeruginosa): inactive
- inhibition [2]: inactive
- inhibition [3]: inactive
- Activity (Candida albicans): inactive
- Ratio [4]: 0.11
- inhibition (Klebsiella aerogenes): inactive
- Activity (Aspergillus niger): inactive

Structure (SMILES): COc1ccc(OC(=O)COc2ccc(F)c(C(N)=O)c2F)cc1
- inhibition (Pseudomonas aeruginosa): inactive
- inhibition [2]: inactive
- inhibition [3]: inactive
- Activity (Candida albicans): inactive
- Ratio [4]: 0.15
- inhibition (Klebsiella aerogenes): inactive
- Activity (Aspergillus niger): inactive
- Ratio [6]: 0.19

Structure (SMILES): NC(=O)c1c(F)ccc(OCC(=O)OCCOc2ccc(F)cc2)c1F
- inhibition (Pseudomonas aeruginosa): inactive
- Ratio [5]: 0.44
- inhibition [3]: inactive
- Activity (Candida albicans): inactive
- Ratio [4]: 0.18
- inhibition (Klebsiella aerogenes): inactive
- Activity (Aspergillus niger): inactive
- Ratio [6]: 0.62

Structure (SMILES): NC(=O)c1c(F)ccc(OCc2nc3cc(Cl)cnc3s2)c1F
- inhibition [1]: inactive
- Ratio [5]: 1.2
- inhibition [7]: inactive

Structure (SMILES): Cc1ccc(OC(=O)COc2ccc(F)c(C(N)=O)c2F)cc1
- inhibition (Pseudomonas aeruginosa): inactive
- Ratio [5]: 0.25
- inhibition [3]: inactive
- Activity (Candida albicans): inactive
- Ratio [4]: 0.3
- inhibition (Klebsiella aerogenes): inactive
- Activity (Aspergillus niger): inactive
- Ratio [6]: 0.07

Structure (SMILES): NS(=O)(=O)c1c(F)ccc(OCc2nc3cc(Cl)cnc3s2)c1F
- inhibition [1]: inactive
- inhibition (Pseudomonas aeruginosa): inactive
- inhibition [2]: inactive
- inhibition [7]: inactive
- inhibition [3]: inactive
- Activity (Candida albicans): inactive
- inhibition (Klebsiella aerogenes): inactive
- Activity (Aspergillus niger): inactive

Structure (SMILES): NC(=O)c1c(F)ccc(OCC(=O)OCCOc2ccc(Br)cc2)c1F
- inhibition [1]: inactive
- inhibition (Pseudomonas aeruginosa): inactive
- Ratio [5]: 0.22
- inhibition [3]: inactive
- Activity (Candida albicans): inactive
- Ratio [4]: 0.15
- inhibition (Klebsiella aerogenes): inactive
- Activity (Aspergillus niger): inactive

Structure (SMILES): NC(=O)c1c(F)ccc(OCCCOc2c(Cl)cc(Cl)c3cccnc23)c1F
- inhibition (Pseudomonas aeruginosa): inactive
- Ratio [5]: 0.18
- inhibition [3]: inactive
- Activity (Candida albicans): inactive
- Ratio [4]: 0.1
- inhibition (Klebsiella aerogenes): inactive
- Activity (Aspergillus niger): inactive
- Ratio [6]: 0.2

Structure (SMILES): Cc1ccc2cccc(OCCCOc3ccc(F)c(C(N)=O)c3F)c2n1
- inhibition [1]: inactive
- inhibition (Pseudomonas aeruginosa): inactive
- inhibition [2]: inactive
- inhibition [7]: inactive
- inhibition [3]: inactive
- Activity (Candida albicans): inactive
- inhibition (Klebsiella aerogenes): inactive
- Activity (Aspergillus niger): inactive

Structure (SMILES): NC(=O)c1c(F)ccc(OCCC(=O)Oc2ccccc2)c1F
- inhibition (Pseudomonas aeruginosa): inactive
- Ratio [5]: 0.41
- inhibition [3]: inactive
- Activity (Candida albicans): inactive
- Ratio [4]: 0.3
- inhibition (Klebsiella aerogenes): inactive
- Activity (Aspergillus niger): inactive

Structure (SMILES): NC(=O)c1c(F)ccc(OCC(=O)Oc2ccccc2)c1F
- inhibition (Pseudomonas aeruginosa): inactive
- Ratio [5]: 0.07
- inhibition [3]: inactive
- Activity (Candida albicans): inactive
- Ratio [4]: 0.19
- inhibition (Klebsiella aerogenes): inactive
- Activity (Aspergillus niger): inactive
- Ratio [6]: 0.5

Structure (SMILES): Cc1ccc(OCCOC(=O)COc2ccc(F)c(C(N)=O)c2F)cc1
- inhibition [1]: inactive
- inhibition (Pseudomonas aeruginosa): inactive
- Ratio [5]: 0.1
- inhibition [3]: inactive
- Activity (Candida albicans): inactive
- Ratio [4]: 0.25
- inhibition (Klebsiella aerogenes): inactive
- Activity (Aspergillus niger): inactive

Structure (SMILES): COc1ccc(OCCOC(=O)COc2ccc(F)c(C(N)=O)c2F)cc1
- inhibition (Pseudomonas aeruginosa): inactive
- inhibition [2]: inactive
- inhibition [3]: inactive
- Activity (Candida albicans): inactive
- Ratio [4]: 0.51
- inhibition (Klebsiella aerogenes): inactive
- Activity (Aspergillus niger): inactive
- Ratio [6]: 0.37

Structure (SMILES): NC(=O)c1c(F)ccc(OCCCOc2cccc3ccccc23)c1F
- inhibition [1]: inactive
- inhibition (Pseudomonas aeruginosa): inactive
- inhibition [2]: inactive
- inhibition [7]: inactive
- inhibition [3]: inactive
- Activity (Candida albicans): inactive
- inhibition (Klebsiella aerogenes): inactive
- Activity (Aspergillus niger): inactive

Structure (SMILES): NC(=O)c1c(F)ccc(OCCCOc2ccc(Cl)c3cccnc23)c1F
- inhibition [1]: inactive
- inhibition (Pseudomonas aeruginosa): inactive
- Ratio [5]: 0.25
- inhibition [3]: inactive
- Activity (Candida albicans): inactive
- Ratio [4]: 0.1
- inhibition (Klebsiella aerogenes): inactive
- Activity (Aspergillus niger): inactive

Structure (SMILES): NS(=O)(=O)c1c(F)ccc(OCc2nc3cc(Cl)ccc3s2)c1F
- inhibition [1]: inactive
- inhibition (Pseudomonas aeruginosa): inactive
- inhibition [2]: inactive
- inhibition [7]: inactive
- inhibition [3]: inactive
- Activity (Candida albicans): inactive
- inhibition (Klebsiella aerogenes): inactive
- Activity (Aspergillus niger): inactive

Structure (SMILES): NC(=O)c1c(F)ccc(OCC(=O)Nc2ccccc2)c1F
- inhibition [1]: inactive
- inhibition (Pseudomonas aeruginosa): inactive
- Ratio [5]: 0.1
- inhibition [3]: inactive
- Activity (Candida albicans): inactive
- Ratio [4]: 0.1
- inhibition (Klebsiella aerogenes): inactive
- Activity (Aspergillus niger): inactive
